Data set [1] deals with GABA channels BZD (central). As to the kind of experiment: Off-target screening (Eurofins Cerep), BZD (central). Format: binding. The text has this: (§1) Off-target interactions are binding of tracers to other components on the cell surface than the actual target site. These non-specific interactions are often of low affinity and easily missed, but can have significant effects. We outsourced the screening for in vitro for off-target interactions of cRGD-ZW800-1 to Eurofins Cerep SA, Le bois l’Evêque, France. They assessed the percentage of inhibition of a reference compound in 44 selected targets, including G protein-coupled receptors (GPCRs), transporters, ion channels, nuclear receptors, kinases and other non-kinase enzymes. These targets were recommended by four major pharmaceutical companies. The complete list is included in Supplementary Table 1 of the Supplementary Data. Each assay was performed twice using 10 μM cRGD-ZW800-1 and a reference compound. Inhibition higher than 50% was considered to represent a significant effect of cRGD-ZW800-1. Results showing between 20% and 50% were considered weak to moderate effects, while lower than 20% was not considered significant and mostly attributable to variability of the signal around the control level.

The target in data set [2] is T1, Cannabinoid CB2 (Homo sapiens, UniProt P34972).
T1 construct: Eurofins Cerep SA (contract screening)
Description: Off-target screening (Eurofins Cerep), CB2. Format: binding.

The target in data set [3] is T2, dopamine receptor D2S (Homo sapiens, UniProt P14416).
T2 construct: Eurofins Cerep SA (contract screening)
Description: Off-target screening (Eurofins Cerep), D2S. Format: binding.

Data set [4] relates to HT-29 tumors and organs. Description: Ex vivo biodistribution, HT-29 model. Format: in vivo, mice. The conditions noted are these: 24 h post injection. As to the method:
After imaging, mice were sacrificed and OSC-19 and BxPC-3 tumors were quickly frozen in isopentane at -80°C for histological evaluation. Tissues were sectioned at 10 μm and fluorescence imaging was performed using fluorescence microscopy (Nikon eclipse e800, Nikon, Amsterdam, The Netherlands). All histologic sections were stained with standard hematoxylin-eosin stain (HE). Organs of mice with colorectal and pancreatic cancer were collected and imaged using the Pearl® to evaluate biodistribution.
Mice were administered with 0.25 (HT-29 model only), 1.0, 10, or 30 nmol cRGD-ZW800-1 to evaluate tumor signals, biodistribution, and to calculate TBRs (n = 3 per dose group). At 4 h (BxPC-3 model) and 24 h (HT-29 model) after injection, mice were fully dissected and fluorescence intensity of their organs was measured.
Mice bearing orthotopic OSC-19 tumors (n = 2) were administrated with 10 nmol cRGD-ZW800-1 and imaged at 4 h. Mice bearing orthotopic MCF-7 tumors (n = 2) were injected with 10 nmol cRGD-ZW800-1 and imaged at 0.5, 1, 2, 4, 6, 8, 24, and 48 h post injection. […] In vivo TBRs were calculated by dividing the mean fluorescence signals of tumors by the mean of surrounding tissue. Ex vivo organ-to-tumor ratios were calculated by dividing the fluorescence intensity of the organ by that of the tumor.

Data set [5] deals with T3, MAO-A (Rattus norvegicus, UniProt P21396).
T3 construct: Eurofins Cerep SA (contract screen)
Description: Off-target screening (Eurofins Cerep), MAO-A. Format: binding.

Data set [6] concerns Na+ channel (site 2). As to the kind of experiment: Off-target screening (Eurofins Cerep), Na+ channel. Format: binding.
Description: as §1

Data set [7] deals with T4, cyclooxygenase-2 (COX-2) (Homo sapiens, UniProt P35354).
T4 construct: Eurofins Cerep SA (contract screen)
Description: Off-target screening (Eurofins Cerep), COX2. Format: biochemical.

For data set [8], the target named is Glutamate channels NMDA (Rattus norvegicus, UniProt Q00959). As to the kind of experiment: Off-target screening (Eurofins Cerep), NMDA. Format: binding.
Data set [9] deals with T5, 5-hydroxytryptamine (serotonin) receptor 2B (5-HT2B) (Homo sapiens, UniProt P41595).
T5 construct: Eurofins Cerep SA (contract screening)
As to the kind of experiment: Off-target screening (Eurofins Cerep), 5-HT2B. Format: binding.
Description: as §1

Data set [10] relates to OSC-19 oral tumors. Description: NIR fluorescence imaging, OSC-19 oral tumors. Format: in vivo, mice. The conditions noted are these: orthotopic OSC-19 tongue model; 10 nmol; 4 h; Pearl; n = 2; mean ± SD. How it is done:
To induce subcutaneous tumors, colorectal cancer cells (HT-29) were injected at 4 sites on the back (500,000 cells per spot). Subsequently, these colorectal tumor cells were transplanted on the colon of other mice, as described by Tseng et al.. Approximately 500,000 pancreatic tumor cells (BxPC-3) were injected into the pancreas, as previously described by Kim et al.. Approximately 40,000 oral tumor cells (OSC-19) were injected in the tongue, as previously described by van Driel et al.. Approximately 500,000 breast tumor cells (MCF-7) were injected in both sides of the mammary fat pad to induce breast cancer tumors.
All animals were imaged using a Pearl® imager (LI-COR, Lincoln, NE) and an original FLARE® prototype. Animals with HT-29 tumors were imaged at 4 and 24 h post injection; animals with BxPC-3 and OSC-19 tumors at 4 h only. Animals with MCF-7 tumors were imaged at 0.5, 1, 2, 4, 6, 8, 24 and 48 h post injection. […] TBRs were calculated by dividing the tumor signal by the background signal. […]
Mice bearing orthotopic OSC-19 tumors (n = 2) were administrated with 10 nmol cRGD-ZW800-1 and imaged at 4 h. […] In vivo TBRs were calculated by dividing the mean fluorescence signals of tumors by the mean of surrounding tissue. Ex vivo organ-to-tumor ratios were calculated by dividing the fluorescence intensity of the organ by that of the tumor.

Data set [11] deals with T6, GR (steroid nuclear receptor) (Homo sapiens, UniProt P04150).
T6 construct: Eurofins Cerep SA (contract screen)
As to the kind of experiment: Off-target screening (Eurofins Cerep), GR. Format: binding.

The mark [12] stands for this setting: 10 μM cRGD-ZW800-1, format H, Ag, performed twice, read-out: % Inhibition of Control Specific Binding.
Where [13] appears, read: 10 μM, mean of 2, read-out: % of Control Specific Binding Mean.

T6 sequence (P04150 whole entry): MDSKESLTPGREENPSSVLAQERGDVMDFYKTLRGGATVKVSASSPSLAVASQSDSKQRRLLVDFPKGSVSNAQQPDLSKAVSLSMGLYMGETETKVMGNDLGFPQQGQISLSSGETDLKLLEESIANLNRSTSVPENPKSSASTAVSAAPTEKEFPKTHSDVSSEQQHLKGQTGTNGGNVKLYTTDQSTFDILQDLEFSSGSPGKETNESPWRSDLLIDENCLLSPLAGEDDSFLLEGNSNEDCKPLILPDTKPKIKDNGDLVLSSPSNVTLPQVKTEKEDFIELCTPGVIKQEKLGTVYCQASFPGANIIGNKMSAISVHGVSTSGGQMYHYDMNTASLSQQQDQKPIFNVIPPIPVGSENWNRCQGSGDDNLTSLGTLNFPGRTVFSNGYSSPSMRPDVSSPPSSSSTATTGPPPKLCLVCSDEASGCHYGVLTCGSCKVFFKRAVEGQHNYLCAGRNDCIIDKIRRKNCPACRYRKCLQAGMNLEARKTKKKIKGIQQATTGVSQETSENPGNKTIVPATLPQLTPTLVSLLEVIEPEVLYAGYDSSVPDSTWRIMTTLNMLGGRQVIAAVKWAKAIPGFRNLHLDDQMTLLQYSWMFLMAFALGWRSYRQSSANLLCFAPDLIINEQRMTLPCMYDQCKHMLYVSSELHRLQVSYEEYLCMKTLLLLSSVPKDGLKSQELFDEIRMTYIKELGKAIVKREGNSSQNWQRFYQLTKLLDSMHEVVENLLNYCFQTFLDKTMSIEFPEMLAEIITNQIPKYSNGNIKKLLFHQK
T3 sequence (P21396 whole entry): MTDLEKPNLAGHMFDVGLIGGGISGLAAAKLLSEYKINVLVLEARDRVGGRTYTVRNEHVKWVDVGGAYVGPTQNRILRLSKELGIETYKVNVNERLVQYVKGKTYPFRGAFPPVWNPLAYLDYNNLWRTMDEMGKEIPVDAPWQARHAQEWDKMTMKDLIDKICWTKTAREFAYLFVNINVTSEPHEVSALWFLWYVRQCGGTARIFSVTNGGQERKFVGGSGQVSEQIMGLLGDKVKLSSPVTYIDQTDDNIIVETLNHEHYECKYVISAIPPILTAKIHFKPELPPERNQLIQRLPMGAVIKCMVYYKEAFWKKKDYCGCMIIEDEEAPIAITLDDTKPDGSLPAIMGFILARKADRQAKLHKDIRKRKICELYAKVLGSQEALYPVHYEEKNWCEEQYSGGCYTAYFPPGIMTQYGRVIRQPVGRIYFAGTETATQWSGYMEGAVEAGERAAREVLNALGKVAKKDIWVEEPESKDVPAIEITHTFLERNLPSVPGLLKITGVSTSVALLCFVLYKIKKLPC
T1 sequence (P34972 whole entry): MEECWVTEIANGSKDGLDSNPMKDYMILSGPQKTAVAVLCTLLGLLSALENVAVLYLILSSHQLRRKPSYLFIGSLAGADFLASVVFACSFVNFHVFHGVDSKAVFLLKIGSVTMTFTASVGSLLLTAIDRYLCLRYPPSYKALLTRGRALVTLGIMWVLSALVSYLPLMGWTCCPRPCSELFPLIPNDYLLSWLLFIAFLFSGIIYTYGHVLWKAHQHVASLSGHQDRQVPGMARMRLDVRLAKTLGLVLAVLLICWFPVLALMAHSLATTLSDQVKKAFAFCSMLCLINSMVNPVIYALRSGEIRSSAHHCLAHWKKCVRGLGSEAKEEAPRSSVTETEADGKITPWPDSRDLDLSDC
T5 sequence (P41595 whole entry): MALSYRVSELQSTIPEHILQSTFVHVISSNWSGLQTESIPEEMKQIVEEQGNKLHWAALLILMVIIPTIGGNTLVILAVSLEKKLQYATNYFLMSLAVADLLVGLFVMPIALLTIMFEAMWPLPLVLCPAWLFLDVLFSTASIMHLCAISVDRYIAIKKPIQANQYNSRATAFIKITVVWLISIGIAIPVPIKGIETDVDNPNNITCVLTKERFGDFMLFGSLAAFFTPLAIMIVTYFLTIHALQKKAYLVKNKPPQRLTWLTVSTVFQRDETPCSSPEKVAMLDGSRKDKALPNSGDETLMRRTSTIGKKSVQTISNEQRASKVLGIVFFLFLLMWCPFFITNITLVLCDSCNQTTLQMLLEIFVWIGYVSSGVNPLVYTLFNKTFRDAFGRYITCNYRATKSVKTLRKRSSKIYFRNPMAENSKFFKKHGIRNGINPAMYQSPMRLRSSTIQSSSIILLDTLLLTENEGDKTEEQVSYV
Sequence of Glutamate channels NMDA (Q00959 23-1464, other chains not shown): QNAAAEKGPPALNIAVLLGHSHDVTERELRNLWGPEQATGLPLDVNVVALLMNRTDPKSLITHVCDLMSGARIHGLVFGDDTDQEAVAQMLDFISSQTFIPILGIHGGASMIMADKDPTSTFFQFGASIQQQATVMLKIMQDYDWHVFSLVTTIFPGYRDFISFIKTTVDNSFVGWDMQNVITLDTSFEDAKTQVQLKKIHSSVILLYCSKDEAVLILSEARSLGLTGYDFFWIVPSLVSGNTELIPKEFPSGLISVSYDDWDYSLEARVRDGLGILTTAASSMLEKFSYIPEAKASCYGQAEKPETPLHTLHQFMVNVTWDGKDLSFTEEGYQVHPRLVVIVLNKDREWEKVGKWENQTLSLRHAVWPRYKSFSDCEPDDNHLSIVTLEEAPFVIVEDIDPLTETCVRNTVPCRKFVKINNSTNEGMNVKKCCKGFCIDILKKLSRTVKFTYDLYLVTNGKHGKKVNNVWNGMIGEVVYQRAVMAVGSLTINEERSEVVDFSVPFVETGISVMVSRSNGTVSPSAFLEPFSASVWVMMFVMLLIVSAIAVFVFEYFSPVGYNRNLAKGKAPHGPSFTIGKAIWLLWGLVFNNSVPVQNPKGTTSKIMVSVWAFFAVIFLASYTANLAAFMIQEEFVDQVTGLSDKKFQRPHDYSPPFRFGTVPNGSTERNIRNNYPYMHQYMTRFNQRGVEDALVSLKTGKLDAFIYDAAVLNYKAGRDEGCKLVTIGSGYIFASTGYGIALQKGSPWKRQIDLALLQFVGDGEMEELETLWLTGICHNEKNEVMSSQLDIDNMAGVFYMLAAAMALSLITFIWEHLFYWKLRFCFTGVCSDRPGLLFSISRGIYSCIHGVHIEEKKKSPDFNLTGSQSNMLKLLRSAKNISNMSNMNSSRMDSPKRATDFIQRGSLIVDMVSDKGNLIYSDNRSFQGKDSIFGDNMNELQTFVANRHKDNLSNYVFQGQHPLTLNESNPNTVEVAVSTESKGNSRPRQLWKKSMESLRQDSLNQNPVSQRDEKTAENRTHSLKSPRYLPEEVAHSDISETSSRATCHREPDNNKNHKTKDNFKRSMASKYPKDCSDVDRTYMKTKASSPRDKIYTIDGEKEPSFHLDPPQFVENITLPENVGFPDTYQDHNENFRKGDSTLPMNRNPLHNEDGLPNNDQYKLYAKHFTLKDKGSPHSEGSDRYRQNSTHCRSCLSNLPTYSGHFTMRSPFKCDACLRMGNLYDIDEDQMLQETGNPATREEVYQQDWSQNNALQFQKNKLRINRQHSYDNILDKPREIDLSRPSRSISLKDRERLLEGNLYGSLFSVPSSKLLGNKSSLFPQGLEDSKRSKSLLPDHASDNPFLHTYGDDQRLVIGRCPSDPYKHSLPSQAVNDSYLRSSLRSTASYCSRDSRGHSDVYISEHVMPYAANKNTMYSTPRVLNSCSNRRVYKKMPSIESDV
T2 sequence (P14416 1-414 isoform P14416-2): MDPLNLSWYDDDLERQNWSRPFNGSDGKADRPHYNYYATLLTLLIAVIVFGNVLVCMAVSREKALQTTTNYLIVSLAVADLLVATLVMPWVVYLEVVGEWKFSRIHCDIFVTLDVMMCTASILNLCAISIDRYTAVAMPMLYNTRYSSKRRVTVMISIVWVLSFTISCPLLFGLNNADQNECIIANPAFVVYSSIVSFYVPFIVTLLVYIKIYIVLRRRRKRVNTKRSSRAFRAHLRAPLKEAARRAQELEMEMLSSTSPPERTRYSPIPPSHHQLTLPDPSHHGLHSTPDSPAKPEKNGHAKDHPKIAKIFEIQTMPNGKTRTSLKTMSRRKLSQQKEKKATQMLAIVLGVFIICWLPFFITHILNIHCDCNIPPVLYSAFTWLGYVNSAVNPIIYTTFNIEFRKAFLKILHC
T4 sequence (P35354 18-604): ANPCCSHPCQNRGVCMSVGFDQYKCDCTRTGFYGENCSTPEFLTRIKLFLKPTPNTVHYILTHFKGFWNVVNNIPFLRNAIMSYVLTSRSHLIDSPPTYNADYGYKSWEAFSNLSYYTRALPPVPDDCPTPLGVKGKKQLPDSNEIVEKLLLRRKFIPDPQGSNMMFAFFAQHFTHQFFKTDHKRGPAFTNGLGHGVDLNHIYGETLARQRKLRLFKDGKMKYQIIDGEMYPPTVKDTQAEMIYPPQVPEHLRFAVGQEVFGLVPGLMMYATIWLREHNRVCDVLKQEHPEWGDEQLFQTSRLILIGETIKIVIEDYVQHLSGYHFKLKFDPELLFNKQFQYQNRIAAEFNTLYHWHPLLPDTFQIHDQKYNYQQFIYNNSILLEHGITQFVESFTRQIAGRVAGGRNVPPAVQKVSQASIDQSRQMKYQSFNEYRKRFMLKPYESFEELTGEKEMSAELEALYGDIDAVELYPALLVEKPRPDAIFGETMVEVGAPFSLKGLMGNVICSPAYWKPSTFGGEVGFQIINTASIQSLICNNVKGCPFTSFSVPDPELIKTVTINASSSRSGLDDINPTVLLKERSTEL

Consider `CC1(C)C(/C=C/C2=C(Oc3ccc(CCC(=O)NCCCC[C@@H]4NC(=O)[C@@H](Cc5ccc(O)cc5)NC(=O)[C@H](CC(=O)O)NC(=O)CNC(=O)[C@H](CCCNC(=N)N)NC4=O)cc3)C(=C/C=C3/N(CCC[N+](C)(C)C)c4ccc(S(=O)(=O)O)cc4C3(C)C)/CCC2)=[N+](CCC[N+](C)(C)C)c2ccc(S(=O)(=O)O)cc21` [cRGD-ZW800-1], for which the “% Inhibition of Control Specific Binding” value in data set [1] (10 μM cRGD-ZW800-1, format Ag, performed twice) is 2%; in data set [6] (10 μM cRGD-ZW800-1, format An, performed twice), 20%. Further, the “% of Control Specific Binding Mean” value in data set [1] (10 μM, mean of 2) came to 97.6%; in data set [6] (10 μM, mean of 2), 79.9%. The inhibition at 10 µM was -11% in data set [2] (setting [12]); 22% in [3] (10 μM cRGD-ZW800-1, format H, An, performed twice, read-out: % Inhibition of Control Specific Binding); 15% in data set [5] (10 μM cRGD-ZW800-1, format An, performed twice, read-out: % Inhibition of Control Specific Binding); 62% in data set [7] (10 μM cRGD-ZW800-1, format H, performed twice, read-out: % Inhibition of Control Specific Binding); 10% in [8] (read-out: % Inhibition of Control Specific Binding); 29% in data set [9] (setting [12]). In data set [11] (setting [12]), the inhibition at 10 µM came to 10%. Further, the remaining activity at 10 µM was determined as 111% in data set [2] (setting [13]); 78.2% in data set [3] (setting [13]); 85% in data set [5] (setting [13]); 38% in data set [7] (setting [13]); 90.4% in data set [8] (read-out: % of Control Specific Binding Mean); 70.9% in data set [9] (setting [13]). In addition, the remaining activity at 10 µM in data set [11] (setting [13]) is 89.9%. In addition, in [4], the “fluorescence signal in kidneys (all dose groups), liver and skin (only 10 and 30 nmol) compared to tumor” value is recorded as “higher”. Moreover, in data set [4] (all dose groups), the “tumor fluorescence relative to lungs, pancreas, muscle, gallbladder, brain, and blood” value is given as “more than twice as fluorescent”. For the same compound, in data set [10], the “mean TBR” value was determined as 5.4 ± 1.1.

By inhibition is commonly meant the change of the read-out against control, counted positive when it falls.

The values are drawn from PMC5400565, “Real-time near-infrared fluorescence imaging using cRGD-ZW800-1 for intraoperative visualization of multiple cancer types” (Oncotarget, 2017).
